#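 Each compound was tested at five concentrations against cells in 96-well plates for 48 hours. TGI: concentration producing complete growth inhibition.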
# Assays:
# Assay in all cases: NCI tumour cell line growth inhibition, 48 h
# 786-0 renal = system: 786-0 renal
# A498 renal = system: A498 renal
# A549 NSCLC = system: A549 NSCLC
# ACHN renal = system: ACHN renal
# BT-549 breast = system: BT-549 breast
# CAKI-1 renal = system: CAKI-1 renal
# CCRF-CEM leukemia = system: CCRF-CEM leukemia
# COLO 205 colon = system: COLO 205 colon
# DU-145 prostate = system: DU-145 prostate
# EKVX NSCLC = system: EKVX NSCLC
# HCC-2998 colon = system: HCC-2998 colon
# HCT-116 colon = system: HCT-116 colon
# HCT-15 colon = system: HCT-15 colon
# HL-60(TB) leukemia = system: HL-60(TB) leukemia
# HOP-62 NSCLC = system: HOP-62 NSCLC
# HOP-92 NSCLC = system: HOP-92 NSCLC
# HS 578T breast = system: HS 578T breast
# HT29 colon = system: HT29 colon
# IGROV1 ovarian = system: IGROV1 ovarian
# K-562 leukemia = system: K-562 leukemia
# KM12 colon = system: KM12 colon
# LOX IMVI melanoma = system: LOX IMVI melanoma
# M14 melanoma = system: M14 melanoma
# MALME-3M melanoma = system: MALME-3M melanoma
# MCF7 breast = system: MCF7 breast
# MDA-MB-231 breast = system: MDA-MB-231 breast
# MDA-MB-435 = system: MDA-MB-435
# MDA-N = system: MDA-N
# MOLT-4 leukemia = system: MOLT-4 leukemia
# NCI-H226 lung = system: NCI-H226 lung
# NCI-H23 lung = system: NCI-H23 lung
# NCI-H460 lung = system: NCI-H460 lung
# NCI-H522 lung = system: NCI-H522 lung
# NCI/ADR-RES ovarian = system: NCI/ADR-RES ovarian
# OVCAR-3 ovarian = system: OVCAR-3 ovarian
# OVCAR-4 ovarian = system: OVCAR-4 ovarian
# OVCAR-5 ovarian = system: OVCAR-5 ovarian
# OVCAR-8 ovarian = system: OVCAR-8 ovarian
# PC-3 prostate = system: PC-3 prostate
# RPMI-8226 leukemia = system: RPMI-8226 leukemia
# RXF 393 renal = system: RXF 393 renal
# SF-268 CNS = system: SF-268 CNS
# SF-295 CNS = system: SF-295 CNS
# SF-539 CNS = system: SF-539 CNS
# SK-MEL-2 melanoma = system: SK-MEL-2 melanoma
# SK-MEL-28 melanoma = system: SK-MEL-28 melanoma
# SK-MEL-5 melanoma = system: SK-MEL-5 melanoma
# SK-OV-3 ovarian = system: SK-OV-3 ovarian
# SN12C renal = system: SN12C renal
# SNB-19 CNS = system: SNB-19 CNS
# SNB-75 CNS = system: SNB-75 CNS
# SR leukemia = system: SR leukemia
# SW-620 colon = system: SW-620 colon
# T-47D breast = system: T-47D breast
# TK-10 renal = system: TK-10 renal
# U251 CNS = system: U251 CNS
# UACC-257 melanoma = system: UACC-257 melanoma
# UACC-62 melanoma = system: UACC-62 melanoma
# UO-31 renal = system: UO-31 renal
smiles,measurement,setting,value
CCOC(=O)/C=C(\C(=O)OCC)n1ccc(=O)n(Cc2cnnn2COCCOC(C)=O)c1=O,TGI,786-0 renal,15.3 µM
same,TGI,A498 renal,41.3 µM
same,TGI,A549 NSCLC,43.4 µM
same,TGI,ACHN renal,10.2 µM
same,TGI,BT-549 breast,22.3 µM
same,TGI,CAKI-1 renal,7.62 µM
same,TGI,CCRF-CEM leukemia,4.53 µM
same,TGI,COLO 205 colon,4.36 µM
same,TGI,DU-145 prostate,37.7 µM
same,TGI,EKVX NSCLC,32.6 µM
same,TGI,HCC-2998 colon,33.4 µM
same,TGI,HCT-116 colon,41.7 µM
same,TGI,HCT-15 colon,> 41.3 µM
same,TGI,HL-60(TB) leukemia,2.04 µM
same,TGI,HOP-62 NSCLC,38.5 µM
same,TGI,HOP-92 NSCLC,2.16 µM
same,TGI,HS 578T breast,61.6 µM
same,TGI,HT29 colon,28.1 µM
same,TGI,IGROV1 ovarian,36.7 µM
same,TGI,K-562 leukemia,> 100 µM
same,TGI,KM12 colon,32.1 µM
same,TGI,LOX IMVI melanoma,> 40.7 µM
same,TGI,M14 melanoma,31.7 µM
same,TGI,MALME-3M melanoma,4.34 µM
same,TGI,MCF7 breast,21.4 µM
same,TGI,MDA-MB-231 breast,35 µM
same,TGI,MDA-MB-435,22.5 µM
same,TGI,MDA-N,33 µM
same,TGI,MOLT-4 leukemia,10.3 µM
same,TGI,NCI-H226 lung,43.2 µM
same,TGI,NCI-H23 lung,33.1 µM
same,TGI,NCI-H460 lung,34.1 µM
same,TGI,NCI-H522 lung,3.53 µM
same,TGI,NCI/ADR-RES ovarian,58.7 µM
same,TGI,OVCAR-3 ovarian,25.1 µM
same,TGI,OVCAR-4 ovarian,54.8 µM
same,TGI,OVCAR-5 ovarian,32 µM
same,TGI,OVCAR-8 ovarian,27.3 µM
same,TGI,PC-3 prostate,33.7 µM
same,TGI,RPMI-8226 leukemia,> 42 µM
same,TGI,RXF 393 renal,14.5 µM
same,TGI,SF-268 CNS,36.4 µM
same,TGI,SF-295 CNS,> 66.6 µM
same,TGI,SF-539 CNS,5.66 µM
same,TGI,SK-MEL-2 melanoma,38.5 µM
same,TGI,SK-MEL-28 melanoma,25.2 µM
same,TGI,SK-MEL-5 melanoma,54.3 µM
same,TGI,SK-OV-3 ovarian,> 100 µM
same,TGI,SN12C renal,36.2 µM
same,TGI,SNB-19 CNS,> 66.4 µM
same,TGI,SNB-75 CNS,40.1 µM
same,TGI,SR leukemia,> 31.2 µM
same,TGI,SW-620 colon,5.93 µM
same,TGI,T-47D breast,27.5 µM
same,TGI,TK-10 renal,12.6 µM
same,TGI,U251 CNS,32.6 µM
same,TGI,UACC-257 melanoma,30.8 µM
same,TGI,UACC-62 melanoma,31 µM
same,TGI,UO-31 renal,30.5 µM
Cc1c(-c2ccccc2)c(C#N)c2nnn(-c3ccc([N+](=O)[O-])cc3)c(=O)n12,TGI,786-0 renal,18.4 µM
same,TGI,A498 renal,49 µM
same,TGI,ACHN renal,> 100 µM
same,TGI,BT-549 breast,69.9 µM
same,TGI,CAKI-1 renal,> 100 µM
same,TGI,CCRF-CEM leukemia,58.2 µM
same,TGI,COLO 205 colon,40.6 µM
same,TGI,DU-145 prostate,23.2 µM
same,TGI,EKVX NSCLC,23.8 µM
same,TGI,HCC-2998 colon,> 100 µM
same,TGI,HCT-116 colon,> 100 µM
same,TGI,HCT-15 colon,> 100 µM
same,TGI,HL-60(TB) leukemia,13.9 µM
same,TGI,HOP-62 NSCLC,45 µM
same,TGI,HOP-92 NSCLC,45.4 µM
same,TGI,HS 578T breast,> 100 µM
same,TGI,HT29 colon,75.3 µM
same,TGI,IGROV1 ovarian,25.3 µM
same,TGI,K-562 leukemia,> 100 µM
same,TGI,KM12 colon,> 100 µM
same,TGI,LOX IMVI melanoma,42.8 µM
same,TGI,MALME-3M melanoma,> 100 µM
same,TGI,MCF7 breast,68.7 µM
same,TGI,MDA-MB-231 breast,27.2 µM
same,TGI,MDA-MB-435,> 100 µM
same,TGI,MDA-N,> 100 µM
same,TGI,NCI-H226 lung,34 µM
same,TGI,NCI-H23 lung,86.5 µM
same,TGI,NCI-H460 lung,> 100 µM
same,TGI,NCI-H522 lung,33 µM
same,TGI,NCI/ADR-RES ovarian,64.7 µM
same,TGI,OVCAR-3 ovarian,39.8 µM
same,TGI,OVCAR-4 ovarian,38.2 µM
same,TGI,OVCAR-5 ovarian,95.4 µM
same,TGI,OVCAR-8 ovarian,23.6 µM
same,TGI,PC-3 prostate,9.54 µM
same,TGI,RPMI-8226 leukemia,> 100 µM
same,TGI,RXF 393 renal,48.2 µM
same,TGI,SF-268 CNS,45.3 µM
same,TGI,SF-295 CNS,74.9 µM
same,TGI,SF-539 CNS,27 µM
same,TGI,SK-MEL-2 melanoma,28.6 µM
same,TGI,SK-MEL-28 melanoma,> 100 µM
same,TGI,SK-MEL-5 melanoma,> 100 µM
same,TGI,SK-OV-3 ovarian,> 100 µM
same,TGI,SN12C renal,69.2 µM
same,TGI,SNB-75 CNS,44.1 µM
same,TGI,SR leukemia,> 100 µM
same,TGI,SW-620 colon,> 100 µM
same,TGI,T-47D breast,> 100 µM
same,TGI,TK-10 renal,90 µM
same,TGI,U251 CNS,21.5 µM
same,TGI,UACC-257 melanoma,> 100 µM
same,TGI,UACC-62 melanoma,> 100 µM
CC(=O)OCC1OC(n2c(-c3ccc(C)cc3)cc(-c3ccco3)c(C#N)c2=S)C(OC(C)=O)C(OC(C)=O)C1OC(C)=O (stereo unspecified),TGI,A498 renal,> 100 µM
same,TGI,A549 NSCLC,> 100 µM
same,TGI,ACHN renal,> 100 µM
same,TGI,BT-549 breast,> 100 µM
same,TGI,CAKI-1 renal,> 100 µM
same,TGI,CCRF-CEM leukemia,> 100 µM
same,TGI,COLO 205 colon,> 100 µM
same,TGI,DU-145 prostate,> 100 µM
same,TGI,EKVX NSCLC,> 100 µM
same,TGI,HCC-2998 colon,> 100 µM
same,TGI,HCT-116 colon,> 100 µM
same,TGI,HCT-15 colon,> 100 µM
same,TGI,HL-60(TB) leukemia,> 100 µM
same,TGI,HOP-62 NSCLC,> 100 µM
same,TGI,HOP-92 NSCLC,81.1 µM
same,TGI,HS 578T breast,> 100 µM
same,TGI,HT29 colon,> 100 µM
same,TGI,IGROV1 ovarian,> 100 µM
same,TGI,K-562 leukemia,> 100 µM
same,TGI,KM12 colon,> 100 µM
same,TGI,LOX IMVI melanoma,> 100 µM
same,TGI,M14 melanoma,> 100 µM
same,TGI,MALME-3M melanoma,> 100 µM
same,TGI,MCF7 breast,> 100 µM
same,TGI,MDA-MB-231 breast,78.4 µM
same,TGI,MDA-MB-435,> 100 µM
same,TGI,MDA-N,> 100 µM
same,TGI,MOLT-4 leukemia,> 100 µM
same,TGI,NCI-H226 lung,> 100 µM
same,TGI,NCI-H23 lung,> 100 µM
same,TGI,NCI-H460 lung,> 100 µM
same,TGI,NCI-H522 lung,> 100 µM
same,TGI,NCI/ADR-RES ovarian,> 100 µM
same,TGI,OVCAR-3 ovarian,> 100 µM
same,TGI,OVCAR-4 ovarian,> 100 µM
same,TGI,OVCAR-5 ovarian,> 100 µM
same,TGI,OVCAR-8 ovarian,> 100 µM
same,TGI,PC-3 prostate,> 100 µM
same,TGI,RPMI-8226 leukemia,> 100 µM
same,TGI,RXF 393 renal,> 100 µM
same,TGI,SF-268 CNS,> 100 µM
same,TGI,SF-295 CNS,> 100 µM
same,TGI,SF-539 CNS,36.1 µM
same,TGI,SK-MEL-2 melanoma,> 100 µM
same,TGI,SK-MEL-28 melanoma,> 100 µM
same,TGI,SK-MEL-5 melanoma,> 100 µM
same,TGI,SK-OV-3 ovarian,> 100 µM
same,TGI,SN12C renal,> 100 µM
same,TGI,SNB-19 CNS,> 100 µM
same,TGI,SNB-75 CNS,> 100 µM
same,TGI,SR leukemia,> 100 µM
same,TGI,SW-620 colon,> 100 µM
same,TGI,T-47D breast,> 100 µM
same,TGI,TK-10 renal,> 100 µM
same,TGI,U251 CNS,> 100 µM
same,TGI,UACC-257 melanoma,> 100 µM
same,TGI,UACC-62 melanoma,45.2 µM
same,TGI,UO-31 renal,> 100 µM

# — PubChem BioAssay (NCI)
